Data from the supplement of paper PMC10331698.
± gives the standard deviation of the averaged measurements.

Columns and labels:
Test in all cases: level (log10 ratio to DMSO vehicle control); higher = higher biomarker level / cell amount than vehicle control
Settings in all cases: in DMSO
[1] = compound: O=C(O)C(F)(F)C(F)(F)C(F)(F)C(=O)O [Hexafluoroglutaric acid]
Experimental: (§1)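 BioMAP Diversity Plus panel of 12 human primary cell co-culture systems (3C, 4H, LPS, SAg, BT, BF4T, BE3C, CASM3C, HDF3CGF, KF3CT, MyoF, Mphg). Compounds were added 1 h before stimulation and left for 24 h (MyoF 48 h; BT 72 h for soluble read-outs or 6 d for IgG). Biomarkers were read by ELISA, cytotoxicity by SRB, PBMC viability and proliferation by Alamar Blue. Each well value was divided by the mean of 8 DMSO control wells on the same plate and log10 transformed; duplicate blinded samples were tested at 4 concentrations.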

[2] = compound: O=S(=O)(O)C(F)(F)C(F)(F)C(F)(F)C(F)(F)C(F)(F)C(F)(F)C(F)(F)C(F)(F)F [Potassium perfluorooctanesulfonate]
Experimental: as §1

[3] = compound: O=C(O)C(F)(F)C(F)(F)C(F)(F)C(F)(F)C(F)(F)F [Perfluorohexanoic acid]
Experimental: as §1

[4] = compound: O=S(=O)(O)C(F)(F)C(F)(F)C(F)(F)C(F)(F)F [Perfluorobutanesulfonic acid]
Experimental: as §1

[5] = compound: FC(F)(F)C(F)(F)C(F)(F)C(F)(F)C(F)(F)C(F)(F)C(F)(F)CCI [1-Iodo-1H,1H,2H,2H-perfluorononane]
Experimental: as §1

[6] = compound: O=S(=O)(O)C(F)(F)C(F)(F)C(F)(F)C(F)(F)C(F)(F)C(F)(F)C(F)(F)C(F)(F)F [Perfluorooctanesulfonic acid]
Experimental: as §1

[7] = compound: O=P(O)(O)CCC(F)(F)C(F)(F)C(F)(F)C(F)(F)C(F)(F)C(F)(F)C(F)(F)C(F)(F)F [((Perfluorooctyl)ethyl)phosphonic acid]
Experimental: as §1

Row | Test System | level (log10) ([1]; 6700 nM) | level (log10) ([1]; 20000 nM) | level (log10) ([1]; 60000 nM) | level (log10) ([2]; 6700 nM) | level (log10) ([2]; 20000 nM) | level (log10) ([2]; 60000 nM) | level (log10) ([3]; 6700 nM) | level (log10) ([3]; 20000 nM) | level (log10) ([3]; 60000 nM) | level (log10) ([4]; 6700 nM) | level (log10) ([4]; 20000 nM) | level (log10) ([4]; 60000 nM) | level (log10) ([5]; 6700 nM) | level (log10) ([5]; 20000 nM) | level (log10) ([6]; 6700 nM) | level (log10) ([6]; 20000 nM) | level (log10) ([6]; 60000 nM) | level (log10) ([7]; 6700 nM) | level (log10) ([7]; 20000 nM) | level (log10) ([7]; 60000 nM)
1 | HDF3CGF:TIMP-1 | -0.0385 ± 0.026 | -0.02 ± 0.072 | -0.045 ± 0.073 | 0.001 ± 0.024 | -0.001 ± 0.016 | 0.097 ± 0.061 | -0.0005 ± 0.0078 | -0.002 ± 0.016 | 0.0025 ± 0.015 | -0.032 ± 0.064 | 0.0125 ± 0.0078 | 0.0195 ± 0.011 | -0.0035 ± 0.0035 | 0.047 ± 0.0085 | -0.0015 ± 0.021 | 0.0165 ± 0.026 | 0.0895 ± 0.061 | -0.03 ± 0.0057 | -0.06 ± 0.018 | -0.0575 ± 0.044
2 | HDF3CGF:TIMP-2 | -0.041 ± 0.0014 | 0.01 ± 0.0028 | -0.0345 ± 0.0021 | -0.055 ± 0.03 | -0.108 ± 0.019 | -0.137 ± 0.038 | 0.033 ± 0.0014 | 0.021 ± 0.017 | 0.025 ± 0.037 | 0.0135 ± 0.037 | 0.017 ± 0.023 | 0.031 ± 0.014 | 0.0165 ± 0.011 | 0.0055 ± 0.0064 | -0.028 ± 0.0085 | -0.0695 ± 0.043 | -0.149 ± 0.018 | 0.0645 ± 0.013 | 0.0485 ± 0.0021 | -0.029 ± 0.018
3 | KF3CT:CCL2/MCP-1 | -0.0255 ± 0.04 | -0.0325 ± 0.067 | -0.0245 ± 0.0021 | -0.009 ± 0.011 | -0.012 ± 0.0014 | 0.001 ± 0.05 | -0.0155 ± 0.019 | -0.0385 ± 0.018 | 0.001 ± 0.052 | -0.032 ± 0.017 | -0.0095 ± 0.026 | 0.0135 ± 0.083 | 0.01 ± 0.03 | 0.0795 ± 0.07 | -0.044 ± 0.017 | -0.0205 ± 0.0078 | 0.0005 ± 0.00071 | -0.0355 ± 0.0064 | -0.0255 ± 0.0078 | -0.038 ± 0.042
4 | KF3CT:CD54/ICAM-1 | -0.0045 ± 0.00071 | -0.014 ± 0.0057 | -0.0015 ± 0.044 | -0.0165 ± 0.021 | 0.0075 ± 0.011 | 0.002 ± 0.027 | 0.0055 ± 0.0064 | -0.002 ± 0.013 | -0.007 ± 0.011 | 0.0015 ± 0.029 | 0.0225 ± 0.012 | 0.0005 ± 0.00071 | -0.0045 ± 0.0092 | -0.0175 ± 0.025 | -0.0085 ± 0.0035 | 0.003 ± 0.02 | 0.0115 ± 0.011 | 0.019 ± 0.034 | 0.013 ± 0.018 | -0.0055 ± 0.049
5 | KF3CT:CXCL8/IL-8 | -0.0115 ± 0.025 | -0.006 ± 0.0057 | -0.0135 ± 0.0021 | -0.006 ± 0.017 | -0.0045 ± 0.0092 | -0.0185 ± 0.015 | -0.005 ± 0.014 | 0.009 ± 0.04 | 0.031 ± 0.013 | -0.031 ± 0.02 | -0.002 ± 0.0042 | 0.004 ± 0.0071 | 0.013 ± 0.0071 | 0.0605 ± 0.0092 | -0.005 ± 0.0085 | -0.0135 ± 0.035 | -0.012 ± 0.035 | 0.022 ± 0.0014 | 0.0245 ± 0.0078 | 0.032 ± 0.0028
6 | KF3CT:CXCL9/MIG | -0.007 ± 0.0014 | -0.0075 ± 0.0064 | -0.0065 ± 0.0021 | -0.0065 ± 0.0035 | 0.003 ± 0.0042 | 0.008 ± 0.027 | 0.0075 ± 0.0064 | 0.0035 ± 0.012 | 0.0095 ± 0.012 | 0.0185 ± 0.029 | 0.021 ± 0.017 | 0.0345 ± 0.0078 | 0.0045 ± 0.00071 | -0.01 ± 0.025 | -0.007 ± 0.0042 | 0.0025 ± 0.0035 | 0.0075 ± 0.012 | -0.0095 ± 0.0078 | 0 ± 0.0071 | -0.0225 ± 0.0092
7 | KF3CT:CXCL10/IP-10 | -0.001 | -0.01 ± 0.0014 | 0.005 ± 0.0014 | -0.0075 ± 0.032 | -0.0015 ± 0.016 | -0.0335 ± 0.012 | 0.0045 ± 0.0092 | 0.0045 ± 0.005 | 0.017 ± 0.0014 | 0.0305 ± 0.025 | 0.0385 ± 0.028 | 0.0405 ± 0.019 | -0.0065 ± 0.005 | -0.0235 ± 0.0092 | -0.012 ± 0.02 | -0.0065 ± 0.03 | -0.015 ± 0.013 | 0.0105 ± 0.028 | 0.023 ± 0.013 | 0.0205 ± 0.005
8 | KF3CT:IL-1alpha | -0.021 ± 0.014 | 0.012 ± 0.013 | -0.0395 ± 0.012 | -0.0105 ± 0.016 | -0.0085 ± 0.026 | -0.029 ± 0.0028 | -0.0045 ± 0.011 | -0.0185 ± 0.011 | 0.008 ± 0.021 | -0.009 ± 0.0042 | -0.0085 ± 0.0078 | -0.006 ± 0.025 | -0.01 ± 0.0071 | 0.019 ± 0.047 | 0.0105 ± 0.0064 | -0.0165 ± 0.00071 | -0.016 ± 0.0028 | 0.0025 ± 0.019 | 0.0035 ± 0.011 | 0.0025 ± 0.029
9 | KF3CT:MMP-9 | -0.001 ± 0.023 | 0.015 ± 0.021 | 0.005 ± 0.0099 | -0.013 ± 0.0099 | -0.038 ± 0.0042 | -0.0735 ± 0.023 | -0.009 ± 0.014 | -0.0055 ± 0.0035 | 0.017 ± 0.016 | -0.0115 ± 0.0021 | -0.008 ± 0.013 | -0.0145 ± 0.005 | -0.006 ± 0.0042 | 0.0165 ± 0.013 | -0.0195 ± 0.013 | -0.013 | -0.0705 ± 0.015 | -0.0095 ± 0.0064 | -0.027 ± 0.0042 | -0.0365 ± 0.013
10 | KF3CT:PAI-I | -0.004 ± 0.0042 | -0.0005 ± 0.005 | 0.0045 ± 0.0092 | -0.044 ± 0.027 | -0.053 ± 0.0071 | -0.125 ± 0.024 | -0.0075 ± 0.00071 | -0.0175 ± 0.0035 | -0.0085 ± 0.00071 | -0.014 ± 0.048 | 0.003 ± 0.0099 | -0.007 ± 0.027 | 0.0115 ± 0.022 | 0.017 ± 0.021 | -0.0255 ± 0.013 | -0.058 ± 0.02 | -0.135 ± 0.052 | -0.037 ± 0.035 | -0.055 ± 0.02 | -0.0595 ± 0.03
11 | KF3CT:SRB | -0.0055 ± 0.0021 | -0.011 ± 0.0057 | 0.003 ± 0.018 | -0.0075 ± 0.0078 | -0.011 ± 0.0014 | -0.006 ± 0.0057 | 0.0045 ± 0.0035 | -0.012 ± 0.0014 | 0.0045 ± 0.00071 | 0.002 ± 0.0042 | 0 ± 0.0014 | 0 ± 0.0014 | 0.0005 ± 0.005 | 0.005 ± 0.013 | -0.0195 ± 0.0021 | -0.012 ± 0.0042 | -0.012 ± 0.0099 | 0.0025 ± 0.0035 | -0.001 ± 0.013 | 0.0085 ± 0.00071
12 | KF3CT:TIMP-2 | -0.026 ± 0.014 | -0.028 ± 0.0042 | -0.013 ± 0.011 | -0.01 ± 0.013 | 0.002 ± 0.02 | 0.0145 ± 0.0078 | 0.004 ± 0.016 | -0.0125 ± 0.0035 | -0.0125 ± 0.0078 | -0.0265 ± 0.005 | -0.0045 ± 0.029 | -0.0135 ± 0.022 | 0.0145 ± 0.03 | -0.0035 ± 0.0064 | -0.01 ± 0.0014 | -0.0085 ± 0.016 | 0.0225 ± 0.025 | 0.0015 ± 0.0021 | 0.013 ± 0.018 | -0.0345 ± 0.005
13 | KF3CT:uPA | -0.019 ± 0.024 | -0.0055 ± 0.0035 | -0.011 ± 0.011 | -0.011 ± 0.0099 | -0.004 ± 0.011 | -0.027 | 0.0125 ± 0.0064 | -0.004 ± 0.0085 | 0.016 ± 0.0099 | -0.0275 ± 0.029 | -0.0215 ± 0.00071 | -0.0035 ± 0.00071 | 0.0025 ± 0.018 | 0.006 ± 0.016 | -0.001 ± 0.0057 | -0.012 ± 0.018 | -0.021 ± 0.0057 | 0.0065 ± 0.018 | 0.003 ± 0.016 | 0.0025 ± 0.0092
14 | MyoF:CD106/VCAM-1 | -0.0145 ± 0.021 | -0.023 ± 0.0099 | -0.006 ± 0.0014 | 0.002 ± 0.027 | 0.0045 ± 0.029 | 0.0015 ± 0.019 | 0.002 ± 0.0057 | 0.002 ± 0.0071 | -0.0095 ± 0.013 | -0.004 ± 0.0028 | 0.0085 ± 0.0021 | 0.0155 ± 0.016 | -0.007 ± 0.023 | -0.003 ± 0.0014 | 0.0055 ± 0.0021 | 0.0085 ± 0.016 | 0.0165 ± 0.023 | -0.013 ± 0.027 | -0.0105 ± 0.015 | -0.079 ± 0.03
15 | MyoF:CXCL8/IL-8 | -0.0085 ± 0.0021 | -0.0225 ± 0.013 | -0.0015 ± 0.021 | -0.006 ± 0.023 | -0.0455 ± 0.023 | -0.0385 ± 0.0035 | -0.0015 ± 0.016 | -0.0075 ± 0.026 | -0.015 ± 0.05 | 0.007 ± 0.042 | 0.0425 ± 0.021 | 0.0665 ± 0.0064 | 0.0195 ± 0.0064 | 0.0335 ± 0.025 | -0.057 ± 0.0028 | -0.0755 ± 0.013 | -0.025 ± 0.017 | 0.0105 ± 0.026 | 0.025 ± 0.011 | 0.038 ± 0.0028
